Results from US20120214822A1 (ASTRAZENECA AB, priority 2007, published 2012).

Molecular target: human active recombinant p38α-6His tagged (Homo sapiens, UniProt Q16539)
Experiment: P38 Alpha Enzyme Assay (AlphaScreen, biotinylated-ATF2 substrate);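 note: 0.5 nM final p38α, reaction started with ATP and run 45 min at 37 °C, phospho-ATF2 read by antibody-based AlphaScreen, background wells quenched with EDTA before ATP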
Assay type: biochemical
Settings: p38 alpha enzyme inhibition; means of replicate determinations; 4 h pre-incubation at 37° C.; SD of assay 0.2-0.3 log units

Chain of human active recombinant p38α-6His tagged (Q16539 whole entry): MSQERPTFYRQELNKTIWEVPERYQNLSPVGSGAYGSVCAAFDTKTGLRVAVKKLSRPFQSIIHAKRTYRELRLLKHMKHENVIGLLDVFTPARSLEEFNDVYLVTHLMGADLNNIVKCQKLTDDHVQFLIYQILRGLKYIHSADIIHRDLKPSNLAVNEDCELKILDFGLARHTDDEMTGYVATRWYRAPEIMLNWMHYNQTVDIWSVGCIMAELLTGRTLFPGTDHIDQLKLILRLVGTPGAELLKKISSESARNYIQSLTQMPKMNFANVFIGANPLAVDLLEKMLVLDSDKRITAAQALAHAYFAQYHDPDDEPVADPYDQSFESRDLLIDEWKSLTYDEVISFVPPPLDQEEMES

pIC50	Compound
7.3	CONC(=O)c1ccc(C)c(-n2ccnc(C3CCCC3)c2=O)c1 [Example 127, 3-(3-cyclopentyl-2-oxo-1(2H)-pyrazinyl)-N-methoxy-4-methyl-benzamide]
10	CNCCOc1ccccc1C1(Nc2nccn(-c3cc(C(=O)NC4CC4)cc(F)c3C)c2=O)CC1 [Example 259, N-Cyclopropyl-3-fluoro-4-methyl-5-[3-[[1-[2-[2-(methylamino)ethoxy]phenyl]cyclopropyl]amino]-2-oxo-1(2H)-pyrazinyl]-benzamide]
7	Cc1ccc(C(=O)NC2CC2)cc1-n1ccnc(N2CCN(CCN3CCCC3)C(c3ccccc3)C2)c1=O (stereo not drawn) [Example 123, N-Cyclopropyl-4-methyl-3-[2-oxo-3-[3-phenyl-4-[2-(1-pyrrolidinyl)ethyl]-1-piperazinyl]-1(2H)-pyrazinyl]-benzamide]
8.9	Cc1ccc(C(=O)NC2CC2)cc1-n1ccnc(N[C@@H](c2ccccc2)[C@@H](C)CN(C)CCN(C)C)c1=O [Example 156, N-Cyclopropyl-3-[3-[[(1R,2S)-3-[[2-(dimethylamino)ethyl]methylamino]-2-methyl-1-phenylpropyl]amino]-2-oxo-1(2H)-pyrazinyl]-4-methyl-benzamide]
6.2	Cc1ccc(C(=O)NC2CC2)cc1-n1cc(CN(C)C)nc(NCc2ccccc2)c1=O [Example 105, N-Cyclopropyl-3-[5-[(dimethylamino)methyl]-2-oxo-3-[(phenylmethyl)amino]-1(2H)-pyrazinyl]-4-methyl-benzamide]
6.6	Cc1ccc(C(=O)NC2CC2)cc1-n1ccnc(N[C@@H]2CCc3ccccc32)c1=O [Example 17, N-Cyclopropyl-3-[3-[[(1R)-2,3-dihydro-1H-inden-1-yl]amino]-2-oxo-1(2H)-pyrazinyl]-4-methyl-benzamide]
9.9	COCCNCCOc1ccccc1C1(Nc2nccn(-c3cc(C(=O)NC4CC4)ccc3C)c2=O)CC1 [Example 231, N-Cyclopropyl-3-[3-[[1-[2-[2-[(2-methoxyethyl)amino]ethoxy]phenyl]cyclopropyl]amino]-2-oxo-1(2H)-pyrazinyl]-4-methyl-benzamide]
7.5	Cc1ccc(C(=O)NC2CC2)cc1-n1ccnc(NCc2ccc(F)cc2)c1=O [Example 33, N-Cyclopropyl-3-[3-[[(4-fluorophenyl)methyl]amino]-2-oxo-1(2H)-pyrazinyl]-4-methyl-benzamide]
9.9	Cc1ccc(C(=O)NC2CC2)cc1-n1ccnc(NC2(c3ccccc3OCCNCCO)CC2)c1=O [Example 233, N-Cyclopropyl-3-[3-[[1-[2-[2-[(2-hydroxyethyl)amino]ethoxy]phenyl]cyclopropyl]amino]-2-oxo-1(2H)-pyrazinyl]-4-methyl-benzamide]
9	Cc1ccc(C(=O)NC2CC2)cc1-n1ccnc(N[C@@H](c2ccccc2)[C@@H](C)CNCC(C)(C)C)c1=O [Example 157, N-Cyclopropyl-3-[3-[[(1R,2S)-3-[(2,2-dimethylpropyl)amino]-2-methyl-1-phenylpropyl]amino]-2-oxo-1(2H)-pyrazinyl]-4-methyl-benzamide]
9	CONC(=O)c1ccc(C)c(-n2ccnc(N[C@@H](c3cccc4ccccc34)[C@@H](C)CN3CCCC3)c2=O)c1 [Example 158, N-Methoxy-4-methyl-3-[3-[[(1R,2S)-2-methyl-1-(1-naphthalenyl)-3-(1-pyrrolidinyl)propyl]amino]-2-oxo-1(2H)-pyrazinyl]-benzamide]
8.9	Cc1ccc(C(=O)NC2CC2)cc1-n1ccnc(N[C@@H](c2ccccc2)[C@@H](C)CN2CCC3(CC2)OCCO3)c1=O [Example 179, N-Cyclopropyl-3-[3-[[(1R,2S)-3-(1,4-dioxa-8-azaspiro[4.5]dec-8-yl)-2-methyl-1-sphenylpropyl]amino]-2-oxo-1(2H)-pyrazinyl]-4-methyl-benzamide]
9.3	CC(C)(Nc1nccn(-c2cc(C(=O)NC3CC3)ccc2Cl)c1=O)c1ccccc1OCCN [Example 334, 3-[3-({1-[2-(2-Aminoethoxy)phenyl]-1-methylethyl}amino)-2-oxopyrazin-1(2H)-yl]-4-chloro-N-cyclopropylbenzamide]
6.7	Cc1ccc(C(=O)NC2CC2)cc1-n1cc(Cl)nc(NCCc2ccccc2)c1=O [Example 110, 3-[5-Chloro-2-oxo-3-[(2-phenylethyl)amino]-1(2H)-pyrazinyl]-N-cyclopropyl-4-methyl-benzamide]
9.1	Cc1ccc(C(=O)NC2CC2)cc1-n1ccnc(NC(C)(C)c2ccccc2OCC2CCCNC2)c1=O (stereo not drawn) [Example 218, N-Cyclopropyl-4-methyl-3-[3-[[1-methyl-1-[2-(3-piperidinylmethoxy)phenyl]ethyl]amino]-2-oxo-1(2H)-pyrazinyl]-benzamide]
6.8	Cc1ccc(C(=O)NC2CC2)cc1-n1ccnc(NCCc2cccc(O)c2)c1=O [Example 71, N-Cyclopropyl-3-[3-[[2-(3-hydroxyphenyl)ethyl]amino]-2-oxo-1(2H)-pyrazinyl]-4-methyl-benzamide]
10.3	Cc1c(F)cc(C(=O)NC2CC2)cc1-n1ccnc(NC2(c3ccccc3OCCNCCO)CC2)c1=O [Example 260, N-Cyclopropyl-3-fluoro-5-[3-[[1-[2-[2-[(2-hydroxyethyl)amino]ethoxy]phenyl]cyclopropyl]amino]-2-oxo-1(2H)-pyrazinyl]-4-methyl-benzamide]

pIC50	Compound
10.1	CCNCCOc1ccc(F)cc1C1(Nc2nccn(-c3cc(C(=O)NC4CC4)ccc3C)c2=O)CC1 [Example 280, N-Cyclopropyl-3-[3-[[1-[2-[2-(ethylamino)ethoxy]-5-fluorophenyl]cyclopropyl]amino]-2-oxo-1(2H)-pyrazinyl]-4-methyl-benzamide]
7	Cc1ccc(C(=O)NC2CC2)cc1-n1ccnc(NC[C@@H](C)c2ccccc2)c1=O [Example 58, N-Cyclopropyl-4-methyl-3-[2-oxo-3-[[(2S)-2-phenylpropyl]amino]-1(2H)-pyrazinyl]-benzamide]
6.3	Cc1ccc(C(=O)NC2CC2)cc1-n1ccnc(N[C@@H](c2ccccc2)C2CCN(C(=O)OCc3ccccc3)CC2)c1=O [Example 102, 4-[(R)-[[4-[5-[(Cyclopropylamino)carbonyl]-2-methylphenyl]-3,4-dihydro-3-oxopyrazinyl]amino]phenylmethyl]-1-piperidinecarboxylic acid, phenylmethyl ester]
8	Cc1cccc(CNc2nccn(-c3cc(C(=O)NC4CC4)ccc3C)c2=O)c1 [Example 46, N-Cyclopropyl-4-methyl-3-[3-[[(3-methylphenyl)methyl]amino]-2-oxo-1(2H)-pyrazinyl]-benzamide]
7.1	Cc1cccc(CCNc2nccn(-c3cc(C(=O)NC4CC4)ccc3C)c2=O)c1 [Example 73, N-Cyclopropyl-4-methyl-3-[3-[[2-(3-methylphenyl)ethyl]amino]-2-oxo-1(2H)-pyrazinyl]-benzamide]
6.8	Cc1ccc(C(=O)NC2CC2)cc1-n1ccnc(NCCc2ccc(OCCN3CCCC3)cc2)c1=O [Example 133, N-Cyclopropyl-4-methyl-3-[2-oxo-3-[[2-[4-[2-(1-pyrrolidinyl)ethoxy]phenyl]ethyl]amino]-1(2H)-pyrazinyl]-benzamide]
8.4	CNCCOc1ccccc1C(C)(C)Nc1nccn(-c2cc(C(=O)NC3CCC3)ccc2C)c1=O [Example 224, N-Cyclobutyl-4-methyl-3-[3-[[1-methyl-1-[2-[2-(methylamino)ethoxy]phenyl]ethyl]amino]-2-oxo-1(2H)-pyrazinyl]-benzamide]
8.5	Cc1cccc(C2CCCN2c2nccn(-c3cc(C(=O)NC4CC4)ccc3C)c2=O)c1 (stereo not drawn) [Example 96, N-Cyclopropyl-4-methyl-3-[3-[2-(3-methylphenyl)-1-pyrrolidinyl]-2-oxo-1(2H)-pyrazinyl]-benzamide]
8.9	COC[C@@H]1CCCN1C[C@H](C)[C@@H](Nc1nccn(-c2cc(C(=O)NC3CC3)ccc2C)c1=O)c1ccccc1 [Example 149, N-Cyclopropyl-3-[3-[[(1R,2S)-3-[(2S)-2-(methoxymethyl)-1-pyrrolidinyl]-2-methyl-1-phenylpropyl]amino]-2-oxo-1(2H)-pyrazinyl]-4-methyl-benzamide]
9.5	Cc1ccc(C(=O)NC2CC2)cc1-n1ccnc(NC2(c3ccccc3OCCNCCF)CC2)c1=O [Example 245, N-Cyclopropyl-3-[3-[[1-[2-[2-[(2-fluoroethyl)amino]ethoxy]phenyl]cyclopropyl]amino]-2-oxo-1(2H)-pyrazinyl]-4-methyl-benzamide]
9.5	Cc1ccc(C(=O)NC2CC2)cc1-n1ccnc(NC2(c3cccc(F)c3OCCN)CC2)c1=O [Example 284, 3-[3-({1-[2-(2-Aminoethoxy)-3-fluorophenyl]cyclopropyl}amino)-2-oxopyrazin-1(2H)-yl]-N-cyclopropyl-4-methylbenzamide]
8.9	Cc1ccc(C(=O)NC2CC2)cc1-n1ccnc(NC(C)(C)c2ccccc2O)c1=O [Example 134, N-Cyclopropyl-3-[3-[[1-(2-hydroxyphenyl)-1-methylethyl]amino]-2-oxo-1(2H)-pyrazinyl]-4-methyl-benzamide]
6.4	Cc1ccc(C(=O)NC2CC2)cc1-n1cc(Br)nc(N2CCN(C)CC2c2ccccc2)c1=O (stereo not drawn) [Example 120, 3-[5-bromo-3-(4-methyl-2-phenyl-1-piperazinyl)-2-oxo-1(2H)-pyrazinyl]-N-cyclopropyl-4-methyl-benzamide]
6.4	Cc1ccc(C(=O)NC2CC2)cc1-n1ccnc(N2CCN(C)CC2)c1=O [Example 2, N-Cyclopropyl-4-methyl-3-[3-(4-methyl-1-piperazinyl)-2-oxo-1(2H)-pyrazinyl]-benzamide]
9.5	COCCNCCOc1ccccc1C(C)(C)Nc1nccn(-c2cc(C(=O)NC3CC3)ccc2C)c1=O [Example 210, N-Cyclopropyl-3-[3-[[1-[2-[2-[(2-methoxyethyl)amino]ethoxy]phenyl]-1-methylethyl]amino]-2-oxo-1(2H)-pyrazinyl]-4-methyl-benzamide]
6.4	Cc1ccc(C(=O)NC2CC2)cc1-n1ccnc(Oc2ccccc2)c1=O [Example 116, N-Cyclopropyl-4-methyl-3-(2-oxo-3-phenoxy-1(2H)-pyrazinyl)-benzamide]
